Data as given in article PMC12610161, “Structural Engineering of Tyrosine-Based Neuroprotective Peptides: A New Strategy for Efficient Blood–Brain Barrier Penetration” (Foods, 2025).
Values joined by “and” are separate entries in the source; they are usually repeats but may differ in a detail not shown here. Identical values can stand only once. Like-named read-outs stand apart in the source and are kept apart here. Ends that are not written are not given here.

Tests used:
[1] = ABTS radical scavenging activity; conditions: 1 mg/mL; 6 min, 734 nm
Experimental: ABTS scavenging radical determination was conducted following the procedure of Li et al. with slight modifications. A 7 mmol/L aqueous solution of ABTS and a 2.49 mmol/L aqueous solution of potassium persulfate were mixed in a 1:1 ratio. The mixture was allowed to stand in the dark at 4 °C for 12–16 h. The concentration was adjusted using 5 mmol/L PBS (pH 7.4) to ensure that the absorbance of the ABTS radical stock solution was 0.700 ± 0.002 at a wavelength of 734 nm. EV and TW peptide aqueous solutions (10 µL), each at a concentration of 1 mg/mL, were taken. A glutathione aqueous solution with the same substrate concentration was used as the control group. After adding the samples to a black 96-well plate, 190 µL of ABTS free radical working solution was added to each well. The absorbance at 734 nm was measured using a microplate reader after a 6 min reaction.
The ABTS clearance was calculated as follows:(2) ABTS radical scavenging rate % = 1−Aa−Ab/Ac×100% where Aa represents the sample; Ab represents the absorbance of the solution in which the ABTS working solution was substituted with 5 mmol/L PBS; Ac represents the absorbance of the blank group.

[2] = Oxygen radical absorbance capacity (ORAC) assay; conditions: substrate concentration 1 mg/mL (printed for EV peptides)
Experimental: ORAC assay was performed based on the technique of Simon et al., with minor modifications. First, in black 96-well plates, 25 µL of PBS buffer (75 mmol/L, pH 7.4), 25 µL of Trolox standard solutions (at concentrations of 6.25 µM, 12.5 µM, 25 µM, 50 µM), and the peptide solution were added at a 1:1 volume ratio. Then, the samples were incubated at 37 °C for 10 min. Subsequently, 150 µL of […] sodium fluorescein was added to all wells and incubated at 37 °C for 20 min. Following this, 25 µL of 6 mmol/L azobisisobutyramidine hydrochloride (AAPH) solution was quickly added to each well. Two control groups were established: one consisted of a black 96-well plate with free radicals (+AAPH), while the other group included a black 96-well plate without free radicals (−AAPH). Both plates were placed in a microplate reader and shaken for 5 s. The excitation wavelength was set to 485 ± 20 nm, and the emission wavelength was set to 530 ± 10 nm. The entire system was set at 37 °C, and the fluorescence intensity was measured every 2 min. […]
The measurement results were expressed as ORAC values using the following formula:ORAC value = [(AUCpeptide − AUCblank)/(AUtrolox − AUCblank)] × Ctrolox/Cpeptide(4) […]

[3] = DPPH radical scavenging activity; conditions: substrate concentration 1 mg/mL (printed for EV peptides); 30 min, 517 nm
Experimental: A modified DPPH scavenging assay was conducted following the method described by Shen et al.. 0.0023 g of DPPH was mixed with 100 mL of 95% absolute ethanol to prepare a 60 µmol/L DPPH radical working solution. The sample was then mixed with 60 µmol/L DPPH free radical working solution at a 1:1 (v/v) ratio, mixed thoroughly, and allowed to stand in the dark for 30 min. The mixture was then centrifuged at 4500 rpm for 10 min. The absorbance was measured at a wavelength of 517 nm and compared with an equivalent concentration of GSH. The DPPH radical scavenging rate was calculated using the following formula:(1) DPPH radical scavenging ratio % = 1−Aa−Ab/Ac×100% where Aa represents the absorbance value of EV, TW and YV peptides solution added to DPPH scavenging radical working solution; Ab denotes the absorbance value of the solution with 95% (v/v) absolute ethanol and the […] scavenging radical working solution; Ac is the absorbance value after mixing distilled water and DPPH in equal volumes of 1:1.

[4] = Transwell in vitro BBB model, apparent permeability; type: in vitro ADME; conditions: mouse, 100 µM in upper chamber, bEnd.3 monolayer, RP-HPLC of lower chamber
Experimental: The method described by Han et al. was referenced and modified. Briefly, 500 µL of bEnd.3 cells at a density of 5 × 10^4 cells/mL were seeded in the upper chamber of Transwell (0.4 µm, 12-well, PET material), and 1.5 mL of DMEM was added to the lower chamber to ensure the upper and lower chambers were aligned. After cell adherence, the culture medium in the upper chamber was changed daily, while the culture medium in the lower chamber was changed every other day. Once the transendothelial electrical resistance (TEER) was > 200 Ω·cm^2, both the upper and lower chambers were replaced with serum-free DMEM. After 12 h, EV and TW peptides, solubilized in HBSS at a concentration of 100 µM, were added to the upper chamber. After 4 h, the samples were collected separately, and RP-HPLC detection, along with Origin 2021 mapping analysis, was performed. TEER and apparent permeability coefficient (Papp) were calculated as follows:TEER = (TEERsample − TEERcontrol) × Cell Culture Area(5) (6) Papp=∆C·V/∆t·C0·A(cm/s) where ΔC represents the concentration in the lower chamber (µM), V is the volume of the lower chamber (mL), Δt indicates the experimental time (s), C0 is the initial concentration in the upper chamber, and A is the membrane area of the Transwell (cm^2).

in vivo = conditions: C57/BJ, mouse, po
Experimental: Six C57/BJ mice were randomly selected, and the peptides [sequence] and [sequence] were administered via gavage, respectively. After 10 h, the mice were euthanized by cervical dislocation, and the brains were harvested. For analysis, 3 mL of normal saline was added to each gram of brain tissue, which was then homogenized. The sample was diluted in a ratio of 1:3 with methanol solution, mixed thoroughly, and centrifuged at 12,000 rpm for 10 min. The resulting supernatant was collected for RP-HPLC analysis.
(§1) Gradient elution was conducted with a mobile phase consisting of pure water with 0.1% TFA (mobile phase A) and acetonitrile containing 0.1% TFA (mobile phase B). […] This was performed for 25 min at a flow rate of 1 mL/min.

in vitro [5] = conditions: KM, mouse, plasma; for half-life at 166.7 µM: In vitro plasma half-life
Experimental: The plasma half-life was evaluated utilizing KM mice (20 ± 2 g) obtained from Changsheng Biotechnology Co., Ltd. (Benxi, Liaoning, China). After the adaptation period, the mice were euthanized by cervical dislocation. Blood was collected from the heart and immediately transferred into an EP tube containing heparin sodium. After standing for 2 h, the plasma was separated by centrifugation at 4500 rpm at 4 °C for 15 min. A 500 µL aliquot of 500 µM peptide solution was added to 1 mL of blank plasma, mixed thoroughly by vortexing, and methanol was added in a 1:3 ratio. After vortexing for 1 min, the mixture was centrifuged at 12,000 rpm for 10 min, and the resulting supernatant was collected for RP-HPLC analysis.
Gradient elution was conducted with a mobile phase consisting of pure water with 0.1% TFA (mobile phase A) and acetonitrile containing 0.1% TFA (mobile phase B). The elution process for mobile phase B was as follows: [sequence]: 10−35%, [sequence]: 8−33%, [sequence]: 5−30%, [sequence]: 4−29%, TWLPLPR: 24−49%, TWLPYPR: 21−46%, TWLPRPR: 16−41%, TWLPKPR: 15−40%, YVPFPLP, YVPFPYP: 11–34%. This was performed for 25 min at a flow rate of 1 mL/min.

HT22 cells = type: cell-based; conditions: mouse, 24 h, 100 µM
Experimental: Mouse brain microvascular endothelial cells (bEnd.3) and mouse hippocampal neuron cells (HT22) were purchased from Zhong Qiao Xin Zhou Biological Technology Ltd. (Shanghai, China). Cells were cultured in DMEM (Cat # 11965092, Gibco, New York, USA) supplemented with 1% (v/v) penicillin/streptomycin (MA0110, MeilunBio, Dalian, China) and 10% (v/v) fetal bovine serum (C04001-500, Vivacell, Shanghai, China) in a 5% CO2 humidified incubator at 37 °C, and passaged every 2 days. When cell confluence reached 85–90%, cells were seeded into 6/12 well plates at a density of 1 × 10^5 cells/mL. Once the confluence reached 85–90% again, the cells were cultured in H2O2 medium at varying concentrations for 2 h as a model group. Cell viability was assessed using MTT at 0.1 mg/mL, and the optimal H2O2 concentration was determined when the cell viability approached 50%.
When cell confluence reached 80–90%, they were incubated with 100 µM EV peptides and TW peptides, respectively, for 24 h, followed by injury with 800 µM H2O2 for 2 h to observe the protective effect of the peptides. Among them, the model group was directly injured after 24 h of incubation with DMEM.

in vitro [6] = experiment: in vitro
Experimental: Walnut peptides were dissolved in distilled water to prepare a 100 µM aqueous solution. The pH was adjusted to 2.0, and pepsin was added to simulate gastric juice digestion. After 1 and 2 h in a 37 °C water bath, 1 mL of the sample was taken and stored at 4 °C for subsequent use. The pH of the remaining solution was then adjusted to 7.0, and 5 mg/mL trypsin was added to simulate intestinal digestion. After 1 and 2 h in a 37 °C water bath, 1 mL samples were taken, filtered through a 0.22 µm pore size membrane, and analyzed via RP-HPLC.
as §1

in vitro BBB model = conditions: cited from earlier work
[7] = set-up: method as in PMID 22934681; conditions: cited from earlier work
[8] = set-up: method as in PMID 29463072; conditions: cited from earlier work

N[C@@H](CCC(=O)N[C@@H](CS)C(=O)NCC(=O)O)C(=O)O [GSH, glutathione]
ABTS radical scavenging rate [1]: 73.20 ± 2.54% | ORAC value [2]: 1003.3 ± 18.6 µmol TE/g | DPPH radical scavenging rate [3]: 70.98 ± 1.09% and 70 ± 1.09%

EVSGPGKSPN [EVSGPGKSPN]
Papp A→B at 4 h, 100 µM [4]: 1.36 ×10⁻⁶ cm/s

EVSGPGLSPN [EVSGPGLSPN]
tissue level at time at 10 h (in vivo): 250 ± 110 ng/g | Papp at 4 h, 100 µM [4]: 3.78 ×10⁻⁶ cm/s | metabolised at 48 h, 167 µM (in vitro [5]): 2.23% | remaining at 1 h, 167 µM (in vitro [5]): 99.75 ± 0.35% | remaining at 2 h, 167 µM (in vitro [5]): 99 ± 0.75% | remaining at 4 h, 167 µM (in vitro [5]): 98.13 ± 0.06% | remaining at 8 h, 167 µM (in vitro [5]): 97.86 ± 0.49% | remaining at 12 h, 167 µM (in vitro [5]): 96.86 ± 0.5% | remaining at 24 h, 167 µM (in vitro [5]): 95.62 ± 0.64% | remaining at 36 h, 167 µM (in vitro [5]): 94.96 ± 0.36% | remaining at 48 h, 167 µM (in vitro [5]): 94.77 ± 0.64% | half-life at 166.7 µM (in vitro [5]): > 48 h | Cell viability (MTT) (HT22 cells): 78.63 ± 0.86% | recovery at 100 µM (in vitro [6]): 19.5 ± 3.33%

EVSGPGYSPN [EVSGPGYSPN]
tissue level at time at 10 h (in vivo): 1250 ± 910 ng/g | Papp at 4 h, 100 µM [4]: 8.1 ×10⁻⁶ cm/s | remaining at 1 h, 167 µM (in vitro [5]): 96.64 ± 0.53% | remaining at 2 h, 167 µM (in vitro [5]): 92.42 ± 0.74% | remaining at 4 h, 167 µM (in vitro [5]): 80.5 ± 0.65% | remaining at 8 h, 167 µM (in vitro [5]): 58.64 ± 0.52% | remaining at 12 h, 167 µM (in vitro [5]): 51 ± 0.64% | remaining at 24 h, 167 µM (in vitro [5]): 24.3 ± 1.94% | remaining at 36 h, 167 µM (in vitro [5]): 0% | remaining at 48 h, 167 µM (in vitro [5]): 0% | half-life at 166.7 µM (in vitro [5]): > 12 h | Cell viability (MTT) (HT22 cells): 86.88 ± 3.18% | recovery at 100 µM (in vitro [6]): 13.99 ± 0.02%

Gly-Sar
Apparent permeability (in vitro BBB model): 7.60 ± 1.29 µL/g/min

H-Tyr-D-Ala-Gly-MePhe-Gly-ol
Plasma half-life ([7]; embedded and delivered with GSH-PEG liposomes): 6.9 ± 2.3 h | Plasma half-life ([7]; free peptide): 0.153 ± 0.035 h

TWLPKPR [TWLPKPR]
Papp A→B at 4 h, 100 µM [4]: 3.45 ×10⁻⁶ cm/s

TWLPLPR [TWLPLPR]
Papp A→B at 4 h, 100 µM [4]: 6.85 ×10⁻⁶ cm/s

TWLPYPR [TWLPYPR]
Papp A→B at 4 h, 100 µM [4]: 7.06 ×10⁻⁶ cm/s

YVPFPLP [YVPFPLP]
Papp A→B at 4 h, 100 µM [4]: 0.999 ×10⁻⁶ cm/s

YVPFPYP [YVPFPYP]
Papp at 4 h, 100 µM [4]: 3.62 ×10⁻⁶ cm/s

eveltivir
Maximum concentration in the brain [8]: 46.5 ± 3.5 ng/g
